These results are taken from patent publication US20230139171A1 (SITA Information Networking Computing UK Limited, priority 2019, published 2023).

The structures appear in SMILES notation.

By IC50 is commonly meant the point on the concentration scale where inhibition reaches its midpoint.

Holding throughout (assay type): cell-based
For one assay, the target named is T1, human TLR9 (Homo sapiens, UniProt Q9NR96).
T1 construct: host or cells: HEK-Blue cells
T1 sequence (Q9NR96 26-1032): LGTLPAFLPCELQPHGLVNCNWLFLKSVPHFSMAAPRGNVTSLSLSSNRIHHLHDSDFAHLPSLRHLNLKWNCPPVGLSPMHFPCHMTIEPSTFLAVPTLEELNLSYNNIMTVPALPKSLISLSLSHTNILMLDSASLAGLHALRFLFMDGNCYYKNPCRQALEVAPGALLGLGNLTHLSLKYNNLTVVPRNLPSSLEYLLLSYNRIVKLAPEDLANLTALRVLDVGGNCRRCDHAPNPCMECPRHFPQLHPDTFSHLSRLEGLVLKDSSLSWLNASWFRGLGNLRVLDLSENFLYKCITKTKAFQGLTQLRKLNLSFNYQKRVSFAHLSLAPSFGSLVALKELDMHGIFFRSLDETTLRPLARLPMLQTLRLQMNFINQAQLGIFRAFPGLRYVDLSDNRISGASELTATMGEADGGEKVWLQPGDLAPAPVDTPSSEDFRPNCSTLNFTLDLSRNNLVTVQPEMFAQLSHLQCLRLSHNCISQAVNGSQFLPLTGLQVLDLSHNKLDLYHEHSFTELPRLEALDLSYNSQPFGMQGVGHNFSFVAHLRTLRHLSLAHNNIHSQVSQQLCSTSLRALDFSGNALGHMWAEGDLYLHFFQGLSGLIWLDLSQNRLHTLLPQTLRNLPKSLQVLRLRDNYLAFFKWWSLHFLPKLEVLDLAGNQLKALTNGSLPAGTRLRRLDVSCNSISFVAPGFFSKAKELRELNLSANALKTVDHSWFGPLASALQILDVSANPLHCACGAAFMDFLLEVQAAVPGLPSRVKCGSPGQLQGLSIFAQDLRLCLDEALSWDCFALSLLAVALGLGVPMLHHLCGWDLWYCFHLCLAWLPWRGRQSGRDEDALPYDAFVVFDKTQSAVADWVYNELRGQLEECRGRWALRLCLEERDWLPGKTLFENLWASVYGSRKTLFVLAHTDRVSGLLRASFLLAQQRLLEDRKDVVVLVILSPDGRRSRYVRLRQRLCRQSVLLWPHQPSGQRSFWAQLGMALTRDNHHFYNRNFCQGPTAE
The assay is described as follows: TLR9 inhibition reporter assay (HEK-Blue cells, SEAP reporter, ODN2006 stimulation). As to conditions: HEK-Blue cells overexpressing human TLR9, SEAP reporter, ODN2006 5 nM. In short, it runs like this: (§1)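 Dose–response from 0.05 nM to 50 μM was run in HEK-Blue human TLR7, TLR8 and TLR9 reporter cells. After 30 min at room temperature with compound, ligand was added (TLR7 gardiquimod 7.5 μM; TLR8 R848 15.9 μM; TLR9 ODN2006 5 nM) and SEAP measured next day, at 22 h.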
(In general: A reporter such as luciferase makes a cellular process visible.)

The target of the next assay is T2, human TLR8 (Homo sapiens, UniProt Q9NR97).
T2 construct: host or cells: HEK-Blue cells
T2 sequence (Q9NR97 27-1041): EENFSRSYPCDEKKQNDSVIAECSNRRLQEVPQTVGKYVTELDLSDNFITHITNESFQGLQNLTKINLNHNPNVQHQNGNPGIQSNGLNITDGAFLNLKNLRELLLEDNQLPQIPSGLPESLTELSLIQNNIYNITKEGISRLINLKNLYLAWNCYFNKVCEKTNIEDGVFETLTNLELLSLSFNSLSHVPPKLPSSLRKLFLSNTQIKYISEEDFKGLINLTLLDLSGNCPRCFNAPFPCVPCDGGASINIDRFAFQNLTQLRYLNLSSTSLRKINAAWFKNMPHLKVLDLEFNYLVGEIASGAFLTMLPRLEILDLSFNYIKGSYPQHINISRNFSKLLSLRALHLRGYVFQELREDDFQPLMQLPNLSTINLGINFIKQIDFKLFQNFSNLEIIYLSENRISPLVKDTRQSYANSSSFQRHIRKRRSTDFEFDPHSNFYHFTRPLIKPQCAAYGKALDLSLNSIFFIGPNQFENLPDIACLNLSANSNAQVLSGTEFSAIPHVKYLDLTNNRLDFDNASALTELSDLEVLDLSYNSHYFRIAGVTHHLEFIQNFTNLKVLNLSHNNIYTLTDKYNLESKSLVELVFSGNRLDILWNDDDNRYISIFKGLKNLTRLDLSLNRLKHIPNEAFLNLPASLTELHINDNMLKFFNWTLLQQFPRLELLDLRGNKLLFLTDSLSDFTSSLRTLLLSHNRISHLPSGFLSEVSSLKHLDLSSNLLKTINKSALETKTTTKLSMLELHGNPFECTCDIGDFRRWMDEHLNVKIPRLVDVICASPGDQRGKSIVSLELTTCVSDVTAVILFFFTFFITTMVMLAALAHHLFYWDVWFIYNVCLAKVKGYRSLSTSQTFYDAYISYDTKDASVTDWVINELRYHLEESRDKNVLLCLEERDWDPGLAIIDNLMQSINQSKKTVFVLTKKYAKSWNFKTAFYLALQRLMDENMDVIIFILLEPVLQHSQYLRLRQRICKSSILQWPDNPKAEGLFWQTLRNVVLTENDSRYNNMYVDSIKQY
The assay is described as follows: TLR8 inhibition reporter assay (HEK-Blue cells, SEAP reporter, R848 stimulation). As to conditions: HEK-Blue cells overexpressing human TLR8, SEAP reporter, R848 15.9 μM; read-out: TLR8 IC50. In short, it runs like this: as §1

For the next assay, the target named is T3, human TLR7 (Homo sapiens, UniProt Q9NYK1).
T3 construct: host or cells: HEK-Blue cells
T3 sequence (Q9NYK1 27-1049): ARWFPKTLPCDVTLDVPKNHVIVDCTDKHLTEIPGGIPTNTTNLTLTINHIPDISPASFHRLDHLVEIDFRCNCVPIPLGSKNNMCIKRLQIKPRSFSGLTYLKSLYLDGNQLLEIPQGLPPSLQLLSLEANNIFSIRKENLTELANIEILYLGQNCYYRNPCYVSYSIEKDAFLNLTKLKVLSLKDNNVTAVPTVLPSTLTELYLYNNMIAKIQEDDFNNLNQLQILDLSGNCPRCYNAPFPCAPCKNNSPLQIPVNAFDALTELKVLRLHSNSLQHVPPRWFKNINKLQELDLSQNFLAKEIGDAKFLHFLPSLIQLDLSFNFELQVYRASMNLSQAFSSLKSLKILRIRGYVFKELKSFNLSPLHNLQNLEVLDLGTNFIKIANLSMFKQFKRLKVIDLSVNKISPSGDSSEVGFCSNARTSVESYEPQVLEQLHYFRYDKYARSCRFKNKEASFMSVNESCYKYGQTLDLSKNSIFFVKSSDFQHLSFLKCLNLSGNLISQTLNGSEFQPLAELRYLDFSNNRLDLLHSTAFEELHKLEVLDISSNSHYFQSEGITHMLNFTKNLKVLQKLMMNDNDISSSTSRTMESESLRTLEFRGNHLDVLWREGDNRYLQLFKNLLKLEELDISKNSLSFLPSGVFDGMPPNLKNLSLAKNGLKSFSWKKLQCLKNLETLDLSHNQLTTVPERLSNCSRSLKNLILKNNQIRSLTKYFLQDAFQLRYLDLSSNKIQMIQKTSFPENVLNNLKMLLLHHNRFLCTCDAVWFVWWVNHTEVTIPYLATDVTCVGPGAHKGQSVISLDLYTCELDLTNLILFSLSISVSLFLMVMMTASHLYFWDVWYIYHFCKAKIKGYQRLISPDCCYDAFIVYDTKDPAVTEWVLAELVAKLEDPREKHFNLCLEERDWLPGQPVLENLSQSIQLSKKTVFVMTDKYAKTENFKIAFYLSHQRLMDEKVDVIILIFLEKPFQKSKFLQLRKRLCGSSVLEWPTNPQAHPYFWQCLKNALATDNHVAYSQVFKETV
The experiment in a line: TLR7 inhibition reporter assay (HEK-Blue cells, SEAP reporter, gardiquimod stimulation). The settings on record: HEK-Blue cells overexpressing human TLR7, SEAP reporter, gardiquimod 7.5 μM; read-out: TLR7 IC50. In short, it runs like this:
as §1

For the compound `Cc1c(-c2[nH]c3sc(N4CCN(C(=O)CN(C)C)C[C@H]4C)nc3c2C(C)C)cn2ncnc2c1C` [Example 327, (R)-1-(4-(5-(7,8-dimethyl-[1,2,4]triazolo[1,5-a]pyridin-6-yl)-6-isopropyl-4H-pyrrolo[3,2-d]thiazol-2-yl)-3-methylpiperazin-1-yl)-2-(dimethylamino)ethan-1-one], the values for the IC50 on human TLR9, at human TLR8 and on human TLR7 were 15800 nM, 7.11 nM and 7.5 nM, respectively.
For `COc1cc(-c2[nH]c3sc(C4CCC(N5[C@@H]6CC[C@H]5COC6)CC4)nc3c2C(C)C)cn2ncnc12` (single isomer, unassigned) [Example 105], the concentration for half-maximal inhibition (IC50) at human TLR9 came to 2180 nM; on human TLR8 it was 43.2 nM; at human TLR7 it was 1.38 nM.
As for `COc1cc(-c2[nH]c3sc(C4CCC(NC5CC6(CNC6)C5)CC4)nc3c2C(C)C)cn2ncnc12` (single isomer, unassigned) [Example 117, N-(4-(6-isopropyl-5-(8-methoxy-[1,2,4]triazolo[1,5-a]pyridin-6-yl)-4H-pyrrolo[3,2-d]thiazol-2-yl)cyclohexyl)-2-azaspiro[3.3]heptan-6-amine], the IC50 at human TLR9 came to 7510 nM; at human TLR8, 22.9 nM; at human TLR7 it was 5.72 nM.
In the case of `Cc1c(-c2[nH]c3sc(C4CCC(N5CCC6(CC5)COC6)CC4)nc3c2C(C)C)cn2ncnc2c1C` (single isomer, unassigned) [Example 237, 7-(4-(5-(7,8-dimethyl-[1,2,4]triazolo[1,5-a]pyridin-6-yl)-6-isopropyl-4H-pyrrolo[3,2-d]thiazol-2-yl)cyclohexyl)-2-oxa-7-azaspiro[3.5]nonane], the IC50 against human TLR9 turned out to be 5490 nM; at human TLR8, 0.29 nM; at human TLR7 it was 4.87 nM.
For the compound `CCc1c(-c2cc(OC)c3ncnn3c2)[nH]c2sc(C3CCC(N4CC5(COC5)C4)CC3)nc12` (single isomer, unassigned) [Example 269, 6-(4-(6-ethyl-5-(8-methoxy-[1,2,4]triazolo[1,5-a]pyridin-6-yl)-4H-pyrrolo[3,2-d]thiazol-2-yl)cyclohexyl)-2-oxa-6-azaspiro[3.3]heptane], the IC50 at human TLR9 is 6280 nM; on human TLR8, 2.55 nM; on human TLR7, 4.31 nM.
The like results for `CC(C)c1c(-c2cn(C)c3ncccc23)[nH]c2sc(C3CCC(NCC4(C)COC4)CC3)nc12` (single isomer, unassigned) [Example 172, 4-(6-isopropyl-5-(1-methyl-1H-pyrrolo[2,3-b]pyridin-3-yl)-4H-pyrrolo[3,2-d]thiazol-2-yl)-N-((3-methyloxetan-3-yl)methyl)cyclohexan-1-amine] were, in that order, 14800 nM, 1.22 nM and 2.84 nM.
On to `Cc1c(-c2[nH]c3sc(C4CCC(N5CC6(CCOCC6)C5)CC4)nc3c2C(C)C)cn2ncnc2c1C` (single isomer, unassigned) [Example 240, 2-(4-(5-(7,8-dimethyl-[1,2,4]triazolo[1,5-a]pyridin-6-yl)-6-isopropyl-4H-pyrrolo[3,2-d]thiazol-2-yl)cyclohexyl)-7-oxa-2-azaspiro[3.5]nonane], for which the IC50 at human TLR9 is 6230 nM; at human TLR8 it was 2.82 nM; on human TLR7, 3.72 nM.
`Cc1c(-c2[nH]c3sc(N4CCC(NC5COC5)CC4)nc3c2C(C)C)cn2ncnc2c1C` [Example 296, 1-(5-(7,8-dimethyl-[1,2,4]triazolo[1,5-a]pyridin-6-yl)-6-isopropyl-4H-pyrrolo[3,2-d]thiazol-2-yl)-N-(oxetan-3-yl)piperidin-4-amine]: the figures for the IC50 against human TLR9, at human TLR8 and at human TLR7 were 33800 nM, 0.73 nM and 3.45 nM, respectively.
On to `COc1cc(-c2[nH]c3sc(C4CCC(N5CC[C@@H](NC(C)=O)C5)CC4)nc3c2C(C)C)cn2ncnc12` (single isomer, unassigned) [Example 101], for which the IC50 came out at 4790 nM at human TLR9, 23 nM on human TLR8 and 3.68 nM at human TLR7.
